US20140179681A1, “METHODS AND COMPOSITIONS OF TARGETED DRUG DEVELOPMENT” (priority 2010, published 2014)
Several values for one entry are separate records, joined by “and”; a condition that tells them apart may be missing. Equal entries are not always repeated. Entries after “also recorded” stand apart in the source; their conditions may differ. Where two headings read alike, the source gives them in different places. Blank lines part the entries; values can stand above or below the compound they belong to.

Tests used:
EGF binding site = target: T1, EGF binding site (Rattus norvegicus, UniProt G3V6K6); assay: Inhibition of [125I]EGF binding (EGF inhibitor assay, NovaScreen); settings: determined at 25 μM; rat liver membranes; result in words
T1 construct: Receptor source was rat liver membranes; tissue NovaScreen BioSciences; host or cells: rat liver membranes
T1 sequence (G3V6K6 25-1209): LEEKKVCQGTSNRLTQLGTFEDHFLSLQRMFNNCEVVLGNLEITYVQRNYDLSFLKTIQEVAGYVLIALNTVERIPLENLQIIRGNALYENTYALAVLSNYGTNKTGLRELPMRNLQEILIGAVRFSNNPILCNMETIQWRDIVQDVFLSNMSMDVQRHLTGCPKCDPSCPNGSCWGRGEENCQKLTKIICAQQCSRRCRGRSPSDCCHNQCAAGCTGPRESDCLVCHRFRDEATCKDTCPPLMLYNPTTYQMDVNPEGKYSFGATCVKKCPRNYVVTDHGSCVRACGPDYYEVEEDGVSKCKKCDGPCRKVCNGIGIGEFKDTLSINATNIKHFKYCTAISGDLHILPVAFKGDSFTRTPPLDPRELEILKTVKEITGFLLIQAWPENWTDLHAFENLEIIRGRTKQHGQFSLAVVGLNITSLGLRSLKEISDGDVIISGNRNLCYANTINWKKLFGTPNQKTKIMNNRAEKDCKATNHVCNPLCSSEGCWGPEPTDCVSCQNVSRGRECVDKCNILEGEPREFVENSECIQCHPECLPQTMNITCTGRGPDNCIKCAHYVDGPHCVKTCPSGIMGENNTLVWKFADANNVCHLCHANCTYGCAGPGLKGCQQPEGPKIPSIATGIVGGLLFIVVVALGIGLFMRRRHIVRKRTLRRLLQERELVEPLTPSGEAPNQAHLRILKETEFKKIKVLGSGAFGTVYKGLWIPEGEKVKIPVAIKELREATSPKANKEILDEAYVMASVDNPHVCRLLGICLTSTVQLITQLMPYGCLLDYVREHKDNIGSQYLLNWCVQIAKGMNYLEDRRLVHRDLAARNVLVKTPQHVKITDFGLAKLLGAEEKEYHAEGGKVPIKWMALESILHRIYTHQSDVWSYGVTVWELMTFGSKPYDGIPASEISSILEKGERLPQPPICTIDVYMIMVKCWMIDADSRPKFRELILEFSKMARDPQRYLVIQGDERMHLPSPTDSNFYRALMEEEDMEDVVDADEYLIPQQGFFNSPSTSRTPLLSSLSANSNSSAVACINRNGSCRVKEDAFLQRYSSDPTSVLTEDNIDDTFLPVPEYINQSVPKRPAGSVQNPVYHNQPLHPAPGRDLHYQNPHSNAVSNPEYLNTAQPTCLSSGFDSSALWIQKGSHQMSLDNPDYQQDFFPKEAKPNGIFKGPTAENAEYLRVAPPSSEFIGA
Protocol: Identified compounds, representing various pharmacophore models, were tested for ability to inhibit EGFR at 25 μM.
AD4-compounds were identified using pharmacophore models (see Example 3, Example 4) and then were docked with the binding site of EGFR (SEQ ID NO: 1) that is recognized by defined CDRs of cetuximab. The inhibition of epidermal growth factor binding by AD4-compounds was then determined (NovaScreen BioSciences, Hanover, Md.). Inhibition of EGF binding was determined at 25 μM concentration.
Receptor source was rat liver membranes. The radioligand was [^125I]EGF ([…]) at a final ligand concentration of 0.36 nM. A non-specific determinant was used as EGF—[100 nM]. The reference compound and positive control was EGF. Reactions were carried out in 10 mM HEPES (pH 7.4) containing 0.1% BSA at 25° C. for 60 minutes. The reaction was terminated by rapid vacuum filtration onto glass fiber filters. Radioactivity trapped onto the filters was determined and compared to control values to ascertain any interactions of test compounds with the EGF binding site. The EGF inhibitor assays were modified from, for example, Mukku (1984) J. Biol. Chem. 259, 6543-6546; Duh et al. (1990) World J. Surgery 14, 410-418; Lokeshwar et al. (1989) J. Biol. Chem. 264(32), 19318-19326.

[1] = system: EGF receptor-mediated cell proliferation; assay: Combination studies (median effect analysis: IC50, CI, DRI) in cell proliferation assay (MTT assay); settings: for CI @ ED90: Combination Index at 90% inhibition; for DRI @ ED97: Dose Reduction Index
Source text: Studies were initiated to evaluate the ability of various compounds disclosed herein to synergize with several compounds known to inhibit the function of the EGF receptor in a cell proliferation assay (MTT assay).

EGFR [2] = target: T2, EGFR (Homo sapiens, UniProt P00533); assay: Titration of known EGFR inhibitors in absence or presence of a fixed concentration of AD4 compound (% inhibition of EGFR); type: cell-based; settings: Tykerb alone or in combination with the compound; result in words
T2 construct: A431 cells (ATCC # CRL-1555) were grown in Dulbecco's Modified Eagle Medium; host or cells: A431
T2 sequence (P00533 25-1210): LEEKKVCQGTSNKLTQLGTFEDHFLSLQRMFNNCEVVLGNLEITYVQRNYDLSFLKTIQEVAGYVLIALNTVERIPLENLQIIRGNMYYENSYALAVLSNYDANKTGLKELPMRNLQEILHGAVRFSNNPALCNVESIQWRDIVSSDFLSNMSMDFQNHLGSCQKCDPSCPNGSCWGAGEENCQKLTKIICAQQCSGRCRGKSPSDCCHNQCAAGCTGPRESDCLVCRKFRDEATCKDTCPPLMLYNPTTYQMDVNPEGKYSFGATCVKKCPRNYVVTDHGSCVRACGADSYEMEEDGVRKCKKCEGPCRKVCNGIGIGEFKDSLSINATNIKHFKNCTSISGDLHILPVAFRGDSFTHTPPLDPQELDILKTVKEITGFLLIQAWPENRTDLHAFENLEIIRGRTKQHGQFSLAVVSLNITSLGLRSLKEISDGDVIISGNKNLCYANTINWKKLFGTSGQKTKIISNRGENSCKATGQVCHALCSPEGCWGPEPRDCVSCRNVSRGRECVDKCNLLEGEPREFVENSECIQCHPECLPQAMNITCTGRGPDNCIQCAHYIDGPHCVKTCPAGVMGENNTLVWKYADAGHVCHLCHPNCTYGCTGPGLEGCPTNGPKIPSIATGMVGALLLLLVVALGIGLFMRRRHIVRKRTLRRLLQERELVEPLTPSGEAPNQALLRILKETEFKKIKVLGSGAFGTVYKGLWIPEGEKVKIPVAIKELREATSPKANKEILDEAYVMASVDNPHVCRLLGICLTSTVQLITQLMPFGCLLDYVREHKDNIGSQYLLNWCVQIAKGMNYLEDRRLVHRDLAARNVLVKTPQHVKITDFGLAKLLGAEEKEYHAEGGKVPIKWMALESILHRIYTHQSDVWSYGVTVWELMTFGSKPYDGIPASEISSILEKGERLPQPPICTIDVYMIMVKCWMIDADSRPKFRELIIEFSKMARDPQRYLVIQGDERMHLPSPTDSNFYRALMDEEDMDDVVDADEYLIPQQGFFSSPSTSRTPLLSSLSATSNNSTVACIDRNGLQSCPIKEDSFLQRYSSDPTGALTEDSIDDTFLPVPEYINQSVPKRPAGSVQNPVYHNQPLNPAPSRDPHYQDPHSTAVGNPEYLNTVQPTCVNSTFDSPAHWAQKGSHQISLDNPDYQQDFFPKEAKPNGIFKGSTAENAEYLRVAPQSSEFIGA

[3] = system: epithelial carcinoma A431 cell line; assay: MTT Cell Proliferation Assay, A431 cells; type: cell-based; settings: Homo sapiens
Method in brief: (§1)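 Each concentration ran in quadruplicate across duplicate plates, with compounds serially diluted in DMSO and delivered at 0.5% DMSO in 0.5% FBS medium for 3 days.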

EGFR [4] = target: T2, EGFR; assay: EGFR in-cell Western (ICW) screening protocol (EGFR inhibition assay); type: cell-based; settings: for ICW assay: Table 10, % Inhibition of EGF dependent EGFR phosphorylation in A431 cells, compound 125 μM in assay
Method in brief: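 In-cell Western read-out: fixed A431 cells were co-stained for total EGFR and phospho-EGFR (Tyr1173; some runs Tyr1045). Before fixation, cells were serum-starved for 2 h, exposed to compound for 4 h, then given EGF for 10 min, usually at 10 ng/ml final (6.6 or 12.5 ng/ml in some runs).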

MDBK line = assay: MTT Cell Proliferation Assay, MDBK cells; type: cell-based, bovine; settings: Bos taurus, MDBK
Method in brief: as §1

[5] = effect of the test compound on Iressa
[6] = effect of the test compound on Tykerb
[7] = A-431, 72 h, Table 10, first of x/y(ratio): A431, three day treatment, unit not printed (doses in μM), read-out: MTT assay (first value)
[8] = 72 h, Table 10, second of x/y(ratio): MDBK, three day treatment, unit not printed (doses in μM), read-out: MTT assay (second value)

Compound: O=C(NC(=S)Nc1ccc(S(=O)(=O)NCCc2ccccc2)cc1)C1CC1 [AD4-1886]
- inhibition of epidermal growth factor binding to its receptor (EGF binding site): inhibitor of epidermal growth factor binding to its receptor

Compound: C#Cc1cccc(Nc2ncnc3cc(OCCOC)c(OCCOC)cc23)c1 [Tarceva, reference compound]
- synergism with Tykerb [1]: did not produce synergistic effects

Compound: CS(=O)(=O)CCNCc1ccc(-c2ccc3ncnc(Nc4ccc(OCc5cccc(F)c5)c(Cl)c4)c3c2)o1 [Tykerb, reference compound]
- effect of Tykerb on the test compound (DRI as a function of Fa) [1]: little effect on AD4-10628
- IC50 ([1]; read-out: IC50 Tykerb): 0.178 µM and 0.189 µM and 0.307 µM

Compound: Cc1cccc(NC(c2ccc(C(F)(F)F)cc2)c2ccc3cccnc3c2O)n1 (stereo not drawn) [AD4-10628]
- CI @ ED90 ([1]; combination with Iressa): 0.91
- CI @ ED90 ([1]; combination with Tykerb): 0.55
- DRI @ ED97 [1, 5]: 105
- DRI @ ED97 [1, 6]: 126

- shift in Tykerb's dose-response curve (EGFR [2]): leftward shift (i.e., greater potency)
Compound: Cc1ccc2c(C)nc(Nc3nc(-c4ccccc4C)cc(=O)[nH]3)nc2c1 [AD4-11511]
- CI @ ED90 ([1]; combination with Iressa): 0.93
- CI @ ED90 ([1]; combination with Tykerb): 0.87
- DRI @ ED97 [1, 5]: 96
- DRI @ ED97 [1, 6]: 84
- DRI (effect of the test compound on Tykerb / Iressa) ([1]; result in words): very high DRI values; also recorded: fairly high DRI

Compound: Cc1ccc2c(C)nc(Nc3nc(-c4ccccc4)cc(=O)[nH]3)nc2c1 [AD4-10381]
- inhibition of epidermal growth factor binding to its receptor (EGF binding site): inhibitor of epidermal growth factor binding to its receptor

- IC50 ([3]; A-431, first value of 'a/b (c)', taken as A431 cells, read-out: MTT Screen, first value of cell): 18.6 µM
- ICW Screen (ICW Inhibition) (EGFR [4]): 41.23
Compound: Cc1cc(C)cc(NS(=O)(=O)c2ccc(NC(=S)NC(=O)CCc3ccccc3)cc2)c1 [AD4-12139]
- IC50 (MDBK line; second value of 'a/b (c)', taken as MDBK cells, read-out: MTT Screen, second value of cell): 5.3 µM

- IC50 [3, 7]: 35.4 µM
- ICW assay (EGFR [4]): 30.7051
Compound: COc1ccccc1NS(=O)(=O)c1ccc(NC(=S)Nc2ccc(OC)c(OC)c2)cc1 [AD4-12537]
- IC50 (MDBK line; [8]): 38.6 µM

- IC50 [3, 7]: 4.07 µM
- ICW assay (EGFR [4]): 30.8167
Compound: CCCCc1ccc(NC(=S)Nc2ccc(S(=O)(=O)Nc3ccccc3)cc2)cc1 [AD4-12823]
- IC50 (MDBK line; [8]): 4.06 µM
